Experimental data as given in patent US6979686B1, “Substituted pyrazoles as p38 kinase inhibitors” (Pharmacia Corporation, priority 2001, dated 2005).
Where two headings read alike, the source gives them in different places. Values belong to the compound of their own block, whether it stands above or below them.

What was measured:
human p38 kinase alpha = target: T1, human p38 kinase alpha (Homo sapiens, UniProt Q16539); assay: p38 kinase in vitro assay, phosphorylation of biotinylated PHAS-I with 32P-ATP; type: biochemical; conditions: for inhibition at 1 µM: read-out: P38 alpha kinase % inhib @ conc.
T1 construct: GST (N, cleaved yes); made in house; host or cells: E. coli DH10B

[1] = tested on: TNF-α, U937 human histiocytic lymphoma cell line; assay: LPS stimulation of TNF production by U937 cells; type: cell-based; conditions: for inhibition at 10 µM: U-937, @ 10.0 uM, read-out: U937 Cell % inhib @ conc.
Experimental: Maintenance and Differentiation of the U937 Human Histiocytic Lymphoma Cell Line:
Fifty million cells in 100 ml media were induced to terminal monocytic differentiation by 24 hour incubation with 20 ng/ml phorbol 12-myristate 13-acetate (Sigma). The cells were washed by centrifugation (200×g for 5 min) and resuspended in 100 ml fresh medium. After 24-48 hours, the cells were harvested, centrifuged, and resuspended in culture medium at 2 million cells/ml.
LPS Stimulation of TNF Production by U937 Cells:
Compounds were prepared as 10 mM stock solutions in DMSO and diluted in culture medium to yield a final DMSO concentration of 0.1% in the cell assay. LPS (E coli, 100 ng/ml final concentration) was then added at a volume of 0.02 ml. After 4 hour incubation at 37° C., the amount of TNF-α released in the culture medium was quantitated by ELISA. Inhibitory potency is expressed as IC50 (μM).
In vitro whole cell assay for measuring the ability of the compounds to inhibit TNF production in human U937 cells stimulated with LPS are shown in the column identified as: • “U937 Cell IC50, uM or % inhib @ conc., (uM)”

[2] = @ 1.0 uM, TNF production, U937 cells stimulated with LPS
[3] = activated human p38 kinase alpha, PHAS-I substrate, 50 μM unlabeled ATP, read-out: p38 kinase IC50
[4] = Table 5, LPS-stimulated U937 cells, TNF-α, read-out: U937 Cell Assay IC50
[5] = Homo sapiens, TNF production, U937 cells stimulated with LPS
[6] = Homo sapiens, U-937, TNF production, human U937 cells stimulated with LPS, read-out: U937 Cell IC50

T1 sequence (Q16539 whole entry): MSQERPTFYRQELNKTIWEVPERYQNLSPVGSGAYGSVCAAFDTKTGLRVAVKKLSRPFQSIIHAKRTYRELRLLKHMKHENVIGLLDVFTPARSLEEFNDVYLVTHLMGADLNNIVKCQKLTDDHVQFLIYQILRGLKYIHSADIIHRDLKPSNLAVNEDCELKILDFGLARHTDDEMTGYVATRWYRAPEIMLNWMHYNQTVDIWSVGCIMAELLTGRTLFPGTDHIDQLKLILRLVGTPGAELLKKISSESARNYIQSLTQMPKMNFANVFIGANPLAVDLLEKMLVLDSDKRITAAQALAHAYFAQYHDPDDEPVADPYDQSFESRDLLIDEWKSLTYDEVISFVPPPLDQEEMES

Structure (SMILES): Cc1n[nH]c(-c2ccc(Br)cc2)c1-c1ccncc1 [Example A-39]
IC50 (human p38 kinase alpha; [3]): 1.1 µM
IC50 [1, 4]: 0.244 µM

Structure (SMILES): COc1cccc(-c2n[nH]c(C)c2-c2ccncc2)c1 [Example A-44]
IC50 (human p38 kinase alpha; [3]): < 0.1 µM
IC50 [1, 4]: 0.477 µM

Structure (SMILES): Cc1[nH]nc(-c2ccc(F)c(F)c2)c1-c1ccncc1 [Example A-46]
IC50 (human p38 kinase alpha; [3]): < 0.1 µM
IC50 [1, 4]: 0.329 µM

Structure (SMILES): CCOc1ccc(-c2n[nH]c(C)c2-c2ccncc2)cc1 [Example A-47]
IC50 (human p38 kinase alpha; [3]): 3.2 µM
IC50 [1, 4]: 2.36 µM

Structure (SMILES): Cc1[nH]nc(-c2ccc(C(F)(F)F)cc2)c1-c1ccncc1 [Example A-48]
IC50 (human p38 kinase alpha; [3]): 1.8 µM
IC50 [1, 4]: 0.522 µM

Structure (SMILES): Cc1[nH]nc(-c2cccc(Cl)c2)c1-c1ccncc1 [Example A-51]
IC50 (human p38 kinase alpha; [3]): < 0.1 µM
IC50 [1, 4]: 0.074 µM

Structure (SMILES): O=C(NCc1[nH]nc(-c2ccc(F)cc2)c1-c1ccncc1)c1ccccc1I [Example B-0005]
inhibition at 1 µM (human p38 kinase alpha; @ 1.0 uM): 95%
IC50 [1, 6]: 2.97 µM

Structure (SMILES): O=C(NCc1[nH]nc(-c2ccc(F)cc2)c1-c1ccncc1)c1ccccc1C(F)(F)F [Example B-0016]
inhibition at 1 µM (human p38 kinase alpha; @ 1.0 uM): 94%
IC50 [1, 6]: 3.98 µM

Structure (SMILES): O=C(NCc1[nH]nc(-c2ccc(F)cc2)c1-c1ccncc1)c1c(Cl)cc(Cl)cc1Cl [Example B-0019]
inhibition at 1 µM (human p38 kinase alpha; @ 1.0 uM): 84%
inhibition at 10 µM [1, 5]: 100%

Structure (SMILES): O=C(NCc1[nH]nc(-c2ccc(F)cc2)c1-c1ccncc1)c1ccc(F)c(F)c1F [Example B-0026]
inhibition at 1 µM (human p38 kinase alpha; @ 1.0 uM): 96%
IC50 [1, 6]: 3.27 µM

Structure (SMILES): O=C(NCc1[nH]nc(-c2ccc(F)cc2)c1-c1ccncc1)c1ccc(F)cc1 [Example B-0042]
inhibition at 1 µM (human p38 kinase alpha; @ 1.0 uM): 94%
IC50 [1, 6]: 2.76 µM

Structure (SMILES): O=C(NCc1[nH]nc(-c2ccc(F)cc2)c1-c1ccncc1)c1ccc(F)c(F)c1 [Example B-0045]
inhibition at 1 µM (human p38 kinase alpha; @ 1.0 uM): 94%
IC50 [1, 6]: 1.01 µM

Structure (SMILES): O=[N+]([O-])c1ccc(S(=O)(=O)NCc2[nH]nc(-c3ccc(F)cc3)c2-c2ccncc2)cc1 [Example B-0115]
P38 alpha kinase % inhib @ conc. (human p38 kinase alpha; @ 1.0 uM): 47.0% @
U937 Cell % inhib @ conc. [1, 2]: 2.0% @

Structure (SMILES): C=Cc1ccc(S(=O)(=O)NCc2[nH]nc(-c3ccc(F)cc3)c2-c2ccncc2)cc1 [Example B-0140]
P38 alpha kinase % inhib @ conc. (human p38 kinase alpha; @ 10.0 uM): 67% @
U937 Cell % inhib @ conc. [1, 2]: 9.0% @

Structure (SMILES): O=S(=O)(NCc1[nH]nc(-c2ccc(F)cc2)c1-c1ccncc1)c1ccc(OC(F)F)cc1 [Example B-0143]
P38 alpha kinase % inhib @ conc. (human p38 kinase alpha; @ 1.0 uM): 42.0% @
IC50 ([1]; TNF production, human U937 cells stimulated with LPS, read-out: U937 Cell IC50): 3.63 µM

Second part, led by results:

P38 alpha kinase IC50, uM or % inhib @ conc. (uM): % inhib (human p38 kinase alpha; @ 10.0 uM): 42.0% @
U937 Cell IC50, uM or % inhib @ conc. (uM): % inhib ([1]; @ 10.0 uM, TNF production, U937 cells stimulated with LPS): 24.0% @
Structure (SMILES): Cc1c(-c2ccncc2)c(-c2ccc(F)cc2)nn1CC(=O)N1CCCCC1CC1CCCN1C (mixture of isomers) [Example B-2388]

P38 alpha kinase % inhib @ conc. (uM) (human p38 kinase alpha; @ 1.0 uM): 81.0% @
Structure (SMILES): O=C(NCCc1[nH]nc(-c2ccc(F)cc2)c1-c1ccncc1)NC1CC1c1ccccc1 (racemic) [Example B-0941]
U937 Cell % inhib @ conc. (uM) [1, 2]: 25.0% @

IC50 (human p38 kinase alpha; in vitro P38-alpha kinase, read-out: P38 alpha kinase IC50): 1.31 µM
Structure (SMILES): O=C(NCc1[nH]nc(-c2ccc(F)cc2)c1-c1ccncc1)[C@@H]1CCCN1 [B0194]
U937 Cell % inhib @ conc. [1, 2]: 22% @

inhibition at 1 µM (human p38 kinase alpha; @ 1.0 uM): 71%
Structure (SMILES): O=C(NCc1[nH]nc(-c2ccc(F)cc2)c1-c1ccncc1)[C@@H]1C[C@@H]1c1ccccc1 [Example B-0002]
inhibition at 10 µM [1, 5]: 28%

inhibition at 1 µM (human p38 kinase alpha; @ 1.0 uM): 94%
IC50 [1, 6]: 11 µM
Structure (SMILES): CC(C)=CC(=O)NCc1[nH]nc(-c2ccc(F)cc2)c1-c1ccncc1 [Example B-0027]

inhibition at 1 µM (human p38 kinase alpha; @ 1.0 uM): 94%
Structure (SMILES): O=C(NCc1[nH]nc(-c2ccc(F)cc2)c1-c1ccncc1)c1ccc([N+](=O)[O-])o1 [Example B-0031]
inhibition at 10 µM [1, 5]: 100%

inhibition at 1 µM (human p38 kinase alpha; @ 1.0 uM): 95%
IC50 [1, 6]: 10 µM
Structure (SMILES): COc1ccc(CC(=O)NCc2[nH]nc(-c3ccc(F)cc3)c2-c2ccncc2)cc1OC [Example B-0034]

inhibition at 1 µM (human p38 kinase alpha; @ 1.0 uM): 92%
IC50 [1, 6]: 8.24 µM
Structure (SMILES): COc1ccc(CC(=O)NCc2[nH]nc(-c3ccc(F)cc3)c2-c2ccncc2)cc1 [Example B-0036]

P38 alpha kinase % inhib @ conc. (human p38 kinase alpha; @ 1.0 uM): 83% @
Structure (SMILES): O=C(NCc1[nH]nc(-c2ccc(F)cc2)c1-c1ccncc1)c1cccc(CCl)c1 [Example B-0065]
U937 Cell % inhib @ conc. [1, 2]: 21.0% @

P38 alpha kinase % inhib @ conc. (human p38 kinase alpha; @ 1.0 uM): 44.0% @
Structure (SMILES): CCOC(=O)C(CCSC)NC(=O)NCc1[nH]nc(-c2ccc(F)cc2)c1-c1ccncc1 (centres unmarked) [Example B-0147]
U937 Cell % inhib @ conc. [1, 2]: 22.0% @
